Experimental data published in patent US20100204460A1, “NATURAL BRASSINOSTEROIDS FOR USE FOR TREATING HYPERPROLIFERATION, TREATING PROLIFERATIVE DISEASES AND REDUCING ADVERSE EFFECTS OF STEROID DYSFUNCTION IN MAMMALS, PHARMACEUTICAL COMPOSITION AND ITS USE” (priority 2007, published 2010).

How the values were obtained:
Format in all cases: cell-based
[1] = test system: DU-145 (androgen-insensitive) prostate cancer cell line; assay: MTT cytotoxicity test, DU-145; conditions: 24 h, mean ± SD, read-out: IC50 determined by MTT cytotoxicity test
Method: (§1) 3-(4,5-Dimethylthiazol-2-yl)-2,5-diphenyltetrazolium bromide (MTT) was from Serva Electrophoresis (Heidelberg, Germany). Monoclonal mouse anti-bromodeoxyuridine (BrdU) intibody was obtained from DakoCytomation (Glostrup, Denmark). Calcein AM was obtained from PAA Laboratories GmbH (Pasching, Austria). […] All other cells were cultured in DMEM medium (Sigma, MO, USA). All used media were supplemented with 10% heat-inactivated fetal bovine serum, 2 mmol/L L-glutamine, 1% penicillin/streptomycin. The cell lines were maintained under standard cell culture conditions at 37° C. and 5% CO2 in a humid environment. Cells were subcultured twice or three times a week using the standard trypsinization procedure (Sigma, USA).
(§2) Cell viability in this case was assessed by 3-(4,5-dimethylthiozol-2-yl)-2,5-diphenyltetrazolium bromide (MTT) to determine IC50 concentrations of studied agents as described previously. […] The cells (70% to 80% confluent) were treated with brassinosteroids for 6, 12 and 24 h in cell culture medium. Cells that were used as controls were incubated with the maximum used amount of steroid diluent DMSO only. […] The absorbance was read using an ELISA reader Labsystem Multiscan RC at 570 nm. The viability of treated cells was related to the viability of control cells that represented 100% viability. […]

[2] = test system: MDA-MB-468 (estrogen receptor-α-negative) breast cancer cell line; assay: MTT cytotoxicity test, MDA-MB-468; conditions: 24 h, mean ± SD, read-out: IC50 determined by MTT cytotoxicity test
Method: as §1, §2

[3] = test system: multiple myeloma cell line RPMI 8226; assay: Calcein AM cytotoxicity assay, RPMI 8226; conditions: RPMI 8226; exposure 72 h (b71 says 96 h); mean ± SD; read-out: IC50 assessed by Calcein AM assay of surviving cells
LNCaP cells = assay: Cell cycle distribution by flow cytometry, LNCaP; conditions: IC50, 24 h; for Apoptosis subG1 fraction: control 8%; for Cell cycle distribution S: control 14%; for Cell cycle distribution G2/M: control 16%; for Cell cycle distribution G1: control 70%
Description: In the MCF-7 breast cancer cell line that has been the most widely studied experimental cell system, the typical growth inhibitory response to antiestrogens is decrease in the proportion of cells synthesising DNA (S phase) after antiestrogen treatment. This decrease in S phase coincides with an increase in the proportion of cells in G0/G1 phase. The activity of the androgen receptor (AR) is also regulated by alterations in cell signaling. There has been reported ligand independent activation of AR in prostate cancer cells by different growth factors. As the AR can be activated in the absence of hormone, it appears that the conditions may be more restricted than those observed for ER. Use of physiologic doses of ligand (dihydrotestosterone, DHT) is of importance as the LNCaP cells proliferate only at DHT concentration of 10^−9 M or lower. […] In contrast to proliferation, transactivation of AR specific target genes (e.g. PSA) continues to increase with DHT doses of 10^−10 M and higher. It might be accepted for estrogen or androgen receptors as stronger cytotoxic activities of brassinosteroids 9 or 6 on hormone-sensitive (MCF-7, LNCaP) compared to hormone-insensitive (MDA-MB-468, DU-145) cell lines were found. Therefore we explored the possibility of cell cycle perturbation by BRs in different cancer cell lines. Flow cytometry was used to evaluate the number of cells in the particular phases of the cell cycle, including subG1 peak detection. Control and treated cells were washed twice with cold PBS and centrifuged at 360×g for 10 min at 4° C., and fixed with chilled ethanol (70%; v/v) by low-speeded vortexing. For detection of DNA content analysis, propidium iodide staining was used. The cells were analyzed using a FACSCalibur flow cytometer (BD Biosciences, San Jose, Calif.).
Flow-cytometric detection of apoptosis. Several studies have declared that the induction of apoptosis may be cell cycle-dependent. Therefore, in our next series of experiments, we tested if brassinosteroids 9 or 6 cause apoptosis of the breast and prostate cancer cells via cell cycle blockage. From this reason we carried out DNA cell cycle analysis by flow cytometry based on detection of endonucleolytic DNA degradation that results in extraction of low molecular weight DNA from the cells. […] The subG1 peak containing apoptotic bodies was however not observed in MCF-7 cells.

Row | SMILES | IC50 [1] [µM] | IC50 [2] [µM] | IC50 [3] [µM] | Apoptosis subG1 fraction (LNCaP cells) [%] | Cell cycle distribution S (LNCaP cells) [%] | Cell cycle distribution G2/M (LNCaP cells) [%] | Cell cycle distribution G1 (LNCaP cells) [%]
1 | CC(C)[C@@H](C)[C@@H](O)[C@H](O)[C@@H](C)[C@H]1CC[C@H]2[C@@H]3COC(=O)[C@H]4C[C@H](O)[C@H](O)C[C@]4(C)[C@H]3CC[C@]12C [Brassinosteroid 6, 24-Epibrassinolide] | 65 ± 0.9 | 68 ± 2.5 | > 50 | 47 | 5 | 9 | 86
2 | CC[C@@H](C(C)C)[C@@H](O)[C@H](O)[C@@H](C)[C@H]1CC[C@H]2[C@@H]3CC(=O)[C@H]4C[C@H](O)[C@H](O)C[C@]4(C)[C@H]3CC[C@]12C [Brassinosteroid 9, 28-Homocastasterone] | 45 ± 2.8 | 65 ± 2.8 | 26 ± 1.4 | 18 | 2 | 4 | 94
